Patent US4522813A, “Cyclic hexapeptide somatostatin analogs” (Merck & Co., Inc., priority 1983, dated 1985)

Assays:
portal vein glucagon = assay: Decrease of portal vein glucagon levels in anesthetized rats; format: in vivo, rat; conditions: multiple or fraction of the effect of somatostatin (=1), fiducial limits in parentheses, external jugular vein, portal vein blood after 5 minutes
Description: (§1) Analogs of somatostatin were compared to somatostatin in their ability to decrease the levels of portal vein glucagon and insulin in anesthetized rats. Male Sprague-Dawley rats (Charles River CD) weighing 160-200 g were anesthetized with urethane (150 mg/100 g of body weight; Aldrich). Saline or peptides were administered via the external jugular vein. After 5 minutes, the portal vein was exposed, and blood was collected via syringe containing 3 mg of EDTA and placed in chilled tubes containing 100 μl of Trasylol (FBA Pharmaceuticals) for subsequent hormone analysis. Plasma levels of glucagon were determined by the method of Faloona and Unger, Methods of Hormone Radioimmunoassay, Jaffe and Behrman (Eds), Academic Press, New York, Vol, II, pp. 257-527 (1976), utilizing glucagon antisera 30K obtained from R. Unger (Dallas, TX). Plasma levels of insulin were determined by a modification of the procedure of Herbert et al., J. Clin. Endocrinol. Metab., 25, 1375-1384 (1965).

[1] = tested on: pentagastrin evoked gastric secretion; assay: Inhibition of pentagastrin evoked gastric secretion in the chronic fistula dog; format: in vivo; set-up: dose or concentration left out as unconfirmed; conditions: infusion 0-60 min., relative to placebo trial; for Gastric Secretion & Inhibition, Acid Concentration 0-30 / Gastric Secretion & Inhibition, Vol. 0-30: interval 0-30 min; for Gastric Secretion & Inhibition, Acid Concentration 30-60 / Gastric Secretion & Inhibition, Vol. 30-60: interval 30-60 min; for Gastric Secretion & Inhibition, Acid Concentration 60-90 / Gastric Secretion & Inhibition, Vol. 60-90: interval 60-90 min; for Gastric Secretion & Inhibition, Acid Concentration 90-120 / Gastric Secretion & Inhibition, Vol. 90-120: interval 90-120 min
Description: The gastric effects of the instant cyclichexapeptide analogs of somatostatin are determined by the following procedure.
Compounds were tested for their ability to inhibit pentagastrin evoked gastric secretion in the chronic fistula dog. Female beagle dogs with a chronic gastric fistula were given pentagastrin (2.5 μg./kg./hour, i.v. from -60 to 120 min.) and gastric outputs were collected via the fistula cannula. Samples were analyzed at 30 minute intervals for volume (Ml.) and titratable acid (mEq/L) (Titration to pH 7 with 0.01N NaOH); total acid output (mEq) was calculated as the production of output volume and acid concentration. Test compounds were infused at a constant rate from 0 to 60 minutes. Data have been expressed as percent change of total acid output relative to a placebo trial in the same animals.

[2] = tested on: growth hormone release from rat pituitary cells; assay: In vitro inhibition of growth hormone release, cultured rat pituitary cells; format: cell-based; conditions: multiple or fraction of the effect of somatostatin (=1), fiducial limits in parentheses, 4 hours incubation
Description: The instant cyclic hexapeptide analogs of somatostatin are tested and compared with the effects of somatostatin in an in vitro test for the inhibition of growth hormone. The test is described as follows:
"Rat pituitaries were isolated according to the procedures of Vale and Grant "In vitro Pituitary Hormone Secretion Assay for Hypophysiotropic Substances" in Methods in Enzymology, Vol. XXXVII, eds. O'Malley, B. W. and Hardman, J. G. (Academic Press, Inc., New York) pp. 5-93 (1975).
After 4 days in culture, the cells were washed and incubated for 4 hours in Dulbecco-modified Eagle's medium in the presence or absence of graded doses of each analog or somatostatin. The medium was then collected for subsequent growth hormone determination by a double antibody radioimmunoassay for rat growth hormone."

portal vein insulin = assay: Decrease of portal vein insulin levels in anesthetized rats; format: in vivo, rat; conditions: multiple or fraction of the effect of somatostatin (=1), fiducial limits in parentheses, external jugular vein, portal vein blood after 5 minutes
Description: as §1

Compound: C[C@H](N)C(=O)NCC(=O)N[C@H]1CSSC[C@@H](C(=O)O)NC(=O)[C@H](CO)NC(=O)[C@H]([C@@H](C)O)NC(=O)[C@H](Cc2ccccc2)NC(=O)[C@H]([C@@H](C)O)NC(=O)[C@H](CCCCN)NC(=O)[C@H](Cc2c[nH]c3ccccc23)NC(=O)[C@H](Cc2ccccc2)NC(=O)[C@H](Cc2ccccc2)NC(=O)[C@H](CC(N)=O)NC(=O)[C@H](CCCCN)NC1=O [Somatostatin]
- Glucagon Inhibition (portal vein glucagon): 1
- Gastric Secretion & Inhibition, Acid Concentration 0-30 [1]: 16%
- Gastric Secretion & Inhibition, Vol. 0-30 [1]: 85%
- Gastric Secretion & Inhibition, Acid Concentration 30-60 [1]: 77%
- Gastric Secretion & Inhibition, Vol. 30-60 [1]: 97%
- Gastric Secretion & Inhibition, Acid Concentration 60-90 [1]: 61%
- Gastric Secretion & Inhibition, Vol. 60-90 [1]: 81%
- Gastric Secretion & Inhibition, Acid Concentration 90-120 [1]: 14%
- Gastric Secretion & Inhibition, Vol. 90-120 [1]: 37%

Compound: Cyclo--(Pro--Phe--D-Trp--cis-AChxAla--Thr--Phe)
- Growth Hormone Release Inhibition [2]: 0.5 (0.3, 0.6)
- Insulin Inhibition (portal vein insulin): 1.4 (0.7, 2.7)
- Glucagon Inhibition (portal vein glucagon): 2.2 (1.1, 4.7)
- Gastric Secretion & Inhibition, Acid Concentration 0-30 [1]: 4%
- Gastric Secretion & Inhibition, Vol. 0-30 [1]: 75%
- Gastric Secretion & Inhibition, Acid Concentration 30-60 [1]: 19%
- Gastric Secretion & Inhibition, Vol. 30-60 [1]: 82%
- Gastric Secretion & Inhibition, Acid Concentration 60-90 [1]: 13%
- Gastric Secretion & Inhibition, Vol. 60-90 [1]: 20%
- Gastric Secretion & Inhibition, Acid Concentration 90-120 [1]: 5%
- Gastric Secretion & Inhibition, Vol. 90-120 [1]: 2%

Compound: Cyclo--(Pro--Phe--D-Trp--t-D-AChxGly--Thr--Phe)
- Growth Hormone Release Inhibition [2]: 0.11
- Insulin Inhibition (portal vein insulin): 0.07
- Glucagon Inhibition (portal vein glucagon): 0.07
